# Data reported in ChEMBL document CHEMBL1201861, “Genomics of Drug Sensitity in Cancer screening data, Wellcome Trust Sanger Institute”.
# pIC50: −log10 of the molar value.
# Columns and labels:
# Test in all cases: cells
# IST-SL1 = format: functional, cell-based, Homo sapiens;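 note: growth inhibition of human IST-SL1 cells, read out with a cell viability assay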
# Description: SANGER: Inhibition of human IST-SL1 cell growth in a cell viability assay.
# A4-Fuk = format: functional, cell-based, Homo sapiens;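 note: growth inhibition of A4-Fuk cells, read out by a cell viability assay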
# Description: SANGER: Inhibition of human A4-Fuk cell growth in a cell viability assay.
# IA-LM = format: functional, cell-based, Homo sapiens;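 note: cell viability assay measuring growth inhibition of human IA-LM cells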
# Description: SANGER: Inhibition of human IA-LM cell growth in a cell viability assay.
# D-502MG = format: functional, cell-based, Homo sapiens
# Description: SANGER: Inhibition of human D-502MG cell growth in a cell viability assay.
# NCI-H510A = format: functional, cell-based, Homo sapiens;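 note: growth inhibition of NCI-H510A cells, read out with a cell viability assay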
# Description: SANGER: Inhibition of human NCI-H510A cell growth in a cell viability assay.
# SW 962 = format: functional, cell-based, Homo sapiens;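 note: growth inhibition of human SW962 cells, read out by a cell viability assay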
# Description: SANGER: Inhibition of human SW962 cell growth in a cell viability assay.
# SK-N-DZ = format: functional, cell-based, Homo sapiens;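 note: growth inhibition of the cancer cell line, read out through a viability assay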
# Description: SANGER: Inhibition of human SK-N-DZ cell growth in a cell viability assay.
# ML-2 = format: functional, cell-based, Homo sapiens;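 note: growth inhibition of ML-2 cells, measured with a cell viability readout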
# Description: SANGER: Inhibition of human ML-2 cell growth in a cell viability assay.
# EW-3 = format: functional, cell-based, Homo sapiens;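 note: cell viability assay read-out, IC50 reflects inhibition of growth of the EW-3 cells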
# Description: SANGER: Inhibition of human EW-3 cell growth in a cell viability assay.
# NCI-H209 = format: functional, cell-based, Homo sapiens;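 note: growth inhibition of human NCI-H209 cells, measured by a cell viability assay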
# Description: SANGER: Inhibition of human NCI-H209 cell growth in a cell viability assay.
# EM-2 = format: functional, cell-based, Homo sapiens;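 note: growth inhibition of EM-2 cells, read out with a cell viability assay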
# Description: SANGER: Inhibition of human EM-2 cell growth in a cell viability assay.
# GR-ST = format: functional, cell-based, Homo sapiens
# Description: SANGER: Inhibition of human GR-ST cell growth in a cell viability assay.
# AM-38 = format: functional, cell-based, Homo sapiens;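 note: growth inhibition of AM-38 cells of human origin, read out by a cell viability assay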
# Description: SANGER: Inhibition of human AM-38 cell growth in a cell viability assay.
# K5 = format: functional, cell-based, Homo sapiens
# Description: SANGER: Inhibition of human K5 cell growth in a cell viability assay.
# GI-ME-N = format: functional, cell-based, Homo sapiens;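 note: growth inhibition of human GI-ME-N cells, read out with a cell viability assay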
# Description: SANGER: Inhibition of human GI-ME-N cell growth in a cell viability assay.
# NMC-G1 = format: functional, cell-based, Homo sapiens;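 note: growth inhibition of the NMC-G1 cell line, measured with a cell viability read-out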
# Description: SANGER: Inhibition of human NMC-G1 cell growth in a cell viability assay.
# TE-9 = format: functional, cell-based, Homo sapiens;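 note: cell growth inhibition, measured with a cell viability readout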
# Description: SANGER: Inhibition of human TE-9 cell growth in a cell viability assay.
# HT-144 = format: functional, cell-based, Homo sapiens
# Description: SANGER: Inhibition of human HT-144 cell growth in a cell viability assay.
# SHP77 = format: functional, cell-based, Homo sapiens, SHP-77;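 note: growth inhibition of human SHP-77 cells measured by a cell viability assay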
# Description: SANGER: Inhibition of human SHP-77 cell growth in a cell viability assay.
# KGN = format: functional, cell-based, Homo sapiens;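 note: growth inhibition of KGN cells, read out with a cell viability assay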
# Description: SANGER: Inhibition of human KGN cell growth in a cell viability assay.
# NCI-H1092 = format: functional, cell-based, Homo sapiens;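 note: cell growth inhibition measured with a cell viability assay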
# Description: SANGER: Inhibition of human NCI-H1092 cell growth in a cell viability assay.
# EW-13 = format: functional, cell-based, Homo sapiens;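 note: growth inhibition of EW-13 cells, read out with a cell viability assay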
# Description: SANGER: Inhibition of human EW-13 cell growth in a cell viability assay.
# SF-126 = format: functional, cell-based, Homo sapiens;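 note: growth inhibition of human SF126 cells, read out with a cell viability assay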
# Description: SANGER: Inhibition of human SF126 cell growth in a cell viability assay.
# ETK-1 = format: functional, cell-based, Homo sapiens;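 note: growth inhibition of human ETK-1 cells, read out with a cell viability assay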
# Description: SANGER: Inhibition of human ETK-1 cell growth in a cell viability assay.
# HCE-4 = format: functional, cell-based, Homo sapiens;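 note: cell viability assay measuring inhibition of growth in the human HCE-4 cell line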
# Description: SANGER: Inhibition of human HCE-4 cell growth in a cell viability assay.
# HCC1187 = format: functional, cell-based, Homo sapiens;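 note: growth inhibition of HCC1187 cells, read out with a cell viability assay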
# Description: SANGER: Inhibition of human HCC1187 cell growth in a cell viability assay.
# JVM-3 = format: functional, cell-based, Homo sapiens;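 note: growth inhibition of human JVM-3 cells, read out with a cell viability assay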
# Description: SANGER: Inhibition of human JVM-3 cell growth in a cell viability assay.
# EW-16 = format: functional, cell-based, Homo sapiens;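 note: growth inhibition of human EW-16 cells, read out as cell viability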
# Description: SANGER: Inhibition of human EW-16 cell growth in a cell viability assay.
# Becker = format: functional, cell-based, Homo sapiens;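 note: growth inhibition of Becker cells, read out with a cell viability assay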
# Description: SANGER: Inhibition of human Becker cell growth in a cell viability assay.
# ES1 = format: functional, cell-based, Homo sapiens;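 note: growth inhibition of ES1 cells, read out with a cell viability assay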
# Description: SANGER: Inhibition of human ES1 cell growth in a cell viability assay.
# KM-H2 = format: functional, cell-based, Homo sapiens;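 note: growth inhibition of KM-H2 cells, read out by a cell viability assay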
# Description: SANGER: Inhibition of human KM-H2 cell growth in a cell viability assay.
# LB1047-RCC = format: functional, cell-based, Homo sapiens;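 note: inhibition of cell growth, determined with a cell viability assay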
# Description: SANGER: Inhibition of human LB1047-RCC cell growth in a cell viability assay.
# A498 = format: functional, cell-based, Homo sapiens;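 note: growth inhibition of human A498 cells, read out with a cell viability assay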
# Description: SANGER: Inhibition of human A498 cell growth in a cell viability assay.
# HL-60 = format: functional, cell-based, Homo sapiens;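 note: growth inhibition of human HL-60 cells, read out with a cell viability assay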
# Description: SANGER: Inhibition of human HL-60 cell growth in a cell viability assay.
# LB2241-RCC = format: functional, cell-based, Homo sapiens;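 note: cell viability assay measuring how strongly the cultured human renal carcinoma line is prevented from growing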
# Description: SANGER: Inhibition of human LB2241-RCC cell growth in a cell viability assay.
# ES7 = format: functional, cell-based, Homo sapiens;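 note: growth inhibition of cultured human ES7 cells, read out as cell viability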
# Description: SANGER: Inhibition of human ES7 cell growth in a cell viability assay.
# HH = format: functional, cell-based, Homo sapiens
# Description: SANGER: Inhibition of human HH cell growth in a cell viability assay.
# NCI-H82 = format: functional, cell-based, Homo sapiens;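 note: growth inhibition of NCI-H82 cells, measured with a cell viability readout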
# Description: SANGER: Inhibition of human NCI-H82 cell growth in a cell viability assay.
# NCI-H1650 = format: functional, cell-based, Homo sapiens;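 note: growth inhibition of human NCI-H1650 cells measured by a cell viability assay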
# Description: SANGER: Inhibition of human NCI-H1650 cell growth in a cell viability assay.
# A388 = format: functional, cell-based, Homo sapiens;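 note: growth inhibition of human A388 cells, read out with a cell viability assay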
# Description: SANGER: Inhibition of human A388 cell growth in a cell viability assay.
# GOTO = format: functional, cell-based, Homo sapiens;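 note: growth inhibition of GOTO cells, read out by a cell viability assay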
# Description: SANGER: Inhibition of human GOTO cell growth in a cell viability assay.
# COLO-829 = format: functional, cell-based, Homo sapiens
# Description: SANGER: Inhibition of human COLO-829 cell growth in a cell viability assay.
# NB6 = format: functional, cell-based, Homo sapiens;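 note: growth inhibition of NB6 cells, read out by a cell viability assay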
# Description: SANGER: Inhibition of human NB6 cell growth in a cell viability assay.
# NCI-H1648 = format: functional, cell-based, Homo sapiens;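 note: cell viability assay measuring inhibition of NCI-H1648 cell growth, from the Sanger screening data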
# Description: SANGER: Inhibition of human NCI-H1648 cell growth in a cell viability assay.
# RKO = format: functional, cell-based, Homo sapiens;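 note: growth inhibition of human RKO cells, read out with a cell viability assay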
# Description: SANGER: Inhibition of human RKO cell growth in a cell viability assay.
# DOHH-2 = format: functional, cell-based, Homo sapiens;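 note: growth inhibition of human DOHH-2 cells, read out with a cell viability assay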
# Description: SANGER: Inhibition of human DOHH-2 cell growth in a cell viability assay.
# ALL-PO = format: functional, cell-based, Homo sapiens;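 note: growth inhibition of ALL-PO cells, read out by a cell viability assay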
# Description: SANGER: Inhibition of human ALL-PO cell growth in a cell viability assay.
# ES8 = format: functional, cell-based, Homo sapiens;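 note: growth inhibition of human ES8 cells, read out with a cell viability assay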
# Description: SANGER: Inhibition of human ES8 cell growth in a cell viability assay.
# CP66-MEL = format: functional, cell-based, Homo sapiens;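 note: growth inhibition of CP66-MEL cells determined in a cell viability assay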
# Description: SANGER: Inhibition of human CP66-MEL cell growth in a cell viability assay.
compound,measurement,setting,value
Cc1cn(-c2cc(NC(=O)c3ccc(C)c(Nc4nccc(-c5cccnc5)n4)c3)cc(C(F)(F)F)c2)cn1 [NILOTINIB],pIC50,"IST-SL1; Homo sapiens, IST-SL1",< 5.70
same,pIC50,"A4-Fuk; Homo sapiens, A4-Fuk",< 5.70
same,pIC50,"IA-LM; Homo sapiens, IA-LM",< 5.70
same,pIC50,"D-502MG; Homo sapiens, D-502MG",< 5.70
same,pIC50,"NCI-H510A; Homo sapiens, NCI-H510A",< 5.70
same,pIC50,"SW 962; Homo sapiens, SW 962",< 5.70
same,pIC50,"SK-N-DZ; Homo sapiens, SK-N-DZ",< 5.70
same,pIC50,"ML-2; Homo sapiens, ML-2",< 5.70
same,pIC50,"EW-3; Homo sapiens, EW-3",< 5.70
same,pIC50,"NCI-H209; Homo sapiens, NCI-H209",< 5.70
same,pIC50,"EM-2; Homo sapiens, EM-2",8.39
same,pIC50,"GR-ST; Homo sapiens, GR-ST",< 5.70
same,pIC50,"AM-38; Homo sapiens, AM-38",< 5.70
same,pIC50,"K5; Homo sapiens, K5",< 5.70
same,pIC50,"GI-ME-N; Homo sapiens, GI-ME-N",< 5.70
same,pIC50,"NMC-G1; Homo sapiens, NMC-G1",< 5.70
same,pIC50,"TE-9; Homo sapiens, TE-9",< 5.70
same,pIC50,"HT-144; Homo sapiens, HT-144",< 5.70
same,pIC50,"SHP77; Homo sapiens, SHP77",< 5.70
same,pIC50,"KGN; Homo sapiens, KGN",< 5.70
same,pIC50,"NCI-H1092; Homo sapiens, NCI-H1092",< 5.70
same,pIC50,"EW-13; Homo sapiens, EW-13",< 5.70
same,pIC50,"SF-126; Homo sapiens, SF-126",< 5.70
same,pIC50,"ETK-1; Homo sapiens, ETK-1",< 5.70
same,pIC50,"HCE-4; Homo sapiens, HCE-4",< 5.70
same,pIC50,"HCC1187; Homo sapiens, HCC1187",< 5.70
same,pIC50,"JVM-3; Homo sapiens, JVM-3",< 5.70
same,pIC50,"EW-16; Homo sapiens, EW-16",< 5.70
same,pIC50,"Becker; Homo sapiens, Becker",< 5.70
same,pIC50,"ES1; Homo sapiens, ES1",< 5.70
same,pIC50,"KM-H2; Homo sapiens, KM-H2",< 5.70
same,pIC50,"LB1047-RCC; Homo sapiens, LB1047-RCC",< 5.70
same,pIC50,"A498; Homo sapiens, A498",< 5.70
same,pIC50,"HL-60; Homo sapiens, HL-60",< 5.70
same,pIC50,"LB2241-RCC; Homo sapiens, LB2241-RCC",5.99
same,pIC50,"ES7; Homo sapiens, ES7",< 5.70
same,pIC50,"HH; Homo sapiens, HH",< 5.70
same,pIC50,"NCI-H82; Homo sapiens, NCI-H82",< 5.70
same,pIC50,"NCI-H1650; Homo sapiens, NCI-H1650",< 5.70
same,pIC50,"A388; Homo sapiens, A388",< 5.70
same,pIC50,"GOTO; Homo sapiens, GOTO",< 5.70
same,pIC50,"COLO-829; Homo sapiens, COLO-829",< 5.70
same,pIC50,"NB6; Homo sapiens, NB6",< 5.70
same,pIC50,"NCI-H1648; Homo sapiens, NCI-H1648",< 5.70
same,pIC50,"RKO; Homo sapiens, RKO",< 5.70
same,pIC50,"DOHH-2; Homo sapiens, DOHH-2",< 5.70
same,pIC50,"ALL-PO; Homo sapiens, ALL-PO",< 5.70
same,pIC50,"ES8; Homo sapiens, ES8",< 5.70
same,pIC50,"CP66-MEL; Homo sapiens, CP66-MEL",< 5.70
CO[C@H]1C[C@@H]2CC[C@@H](C)[C@@](O)(O2)C(=O)C(=O)N2CCCC[C@H]2C(=O)O[C@H]([C@H](C)C[C@@H]2CC[C@@H](OC(=O)C(C)(CO)CO)[C@H](OC)C2)CC(=O)[C@H](C)/C=C(\C)[C@@H](O)[C@@H](OC)C(=O)[C@H](C)C[C@H](C)/C=C/C=C/C=C/1C [TEMSIROLIMUS],pIC50,"IST-SL1; Homo sapiens, IST-SL1",< 6.70
same,pIC50,"A4-Fuk; Homo sapiens, A4-Fuk",7.09
same,pIC50,"IA-LM; Homo sapiens, IA-LM",< 6.70
same,pIC50,"D-502MG; Homo sapiens, D-502MG",< 6.70
same,pIC50,"NCI-H510A; Homo sapiens, NCI-H510A",< 6.70
same,pIC50,"SW 962; Homo sapiens, SW 962",7.81
same,pIC50,"SK-N-DZ; Homo sapiens, SK-N-DZ",< 6.70
same,pIC50,"ML-2; Homo sapiens, ML-2",< 6.70
same,pIC50,"EW-3; Homo sapiens, EW-3",7.31
same,pIC50,"NCI-H209; Homo sapiens, NCI-H209",6.81
same,pIC50,"EM-2; Homo sapiens, EM-2",7.27
same,pIC50,"GR-ST; Homo sapiens, GR-ST",7.48
same,pIC50,"AM-38; Homo sapiens, AM-38",< 6.70
same,pIC50,"K5; Homo sapiens, K5",8.88
same,pIC50,"GI-ME-N; Homo sapiens, GI-ME-N",< 6.70
same,pIC50,"NMC-G1; Homo sapiens, NMC-G1",< 6.70
same,pIC50,"TE-9; Homo sapiens, TE-9",< 6.70
same,pIC50,"HT-144; Homo sapiens, HT-144",< 6.70
same,pIC50,"SHP77; Homo sapiens, SHP77",< 6.70
same,pIC50,"KGN; Homo sapiens, KGN",< 6.70
same,pIC50,"NCI-H1092; Homo sapiens, NCI-H1092",< 6.70
same,pIC50,"EW-13; Homo sapiens, EW-13",7.84
same,pIC50,"SF-126; Homo sapiens, SF-126",7.64
same,pIC50,"ETK-1; Homo sapiens, ETK-1",7.50
same,pIC50,"HCE-4; Homo sapiens, HCE-4",< 6.70
same,pIC50,"HCC1187; Homo sapiens, HCC1187",< 6.70
same,pIC50,"JVM-3; Homo sapiens, JVM-3",8.40
same,pIC50,"EW-16; Homo sapiens, EW-16",7.54
same,pIC50,"Becker; Homo sapiens, Becker",7.10
same,pIC50,"ES1; Homo sapiens, ES1",7.61
same,pIC50,"KM-H2; Homo sapiens, KM-H2",< 6.70
same,pIC50,"LB1047-RCC; Homo sapiens, LB1047-RCC",7.20
same,pIC50,"A498; Homo sapiens, A498",< 6.70
same,pIC50,"HL-60; Homo sapiens, HL-60",< 6.70
same,pIC50,"LB2241-RCC; Homo sapiens, LB2241-RCC",7.41
same,pIC50,"ES7; Homo sapiens, ES7",7.07
same,pIC50,"HH; Homo sapiens, HH",9.18
same,pIC50,"NCI-H82; Homo sapiens, NCI-H82",7.54
same,pIC50,"NCI-H1650; Homo sapiens, NCI-H1650",< 6.70
same,pIC50,"A388; Homo sapiens, A388",< 6.70
same,pIC50,"GOTO; Homo sapiens, GOTO",< 6.70
same,pIC50,"COLO-829; Homo sapiens, COLO-829",< 6.70
same,pIC50,"NB6; Homo sapiens, NB6",< 6.70
same,pIC50,"NCI-H1648; Homo sapiens, NCI-H1648",6.74
same,pIC50,"RKO; Homo sapiens, RKO",6.87
same,pIC50,"DOHH-2; Homo sapiens, DOHH-2",7.77
same,pIC50,"ALL-PO; Homo sapiens, ALL-PO",< 6.70
same,pIC50,"ES8; Homo sapiens, ES8",8.28
same,pIC50,"CP66-MEL; Homo sapiens, CP66-MEL",< 6.70
CISPLATIN,pIC50,IST-SL1; ist-sl1,4.15
same,pIC50,A4-Fuk; a4-fuk,4.32
same,pIC50,IA-LM; ia-lm,4.64
same,pIC50,D-502MG; d-502mg,4.48
same,pIC50,NCI-H510A; nci-h510a,5.51
same,pIC50,SW 962; sw 962,4.19
same,pIC50,SK-N-DZ; sk-n-dz,4.57
same,pIC50,ML-2; ml-2,3.79
same,pIC50,EW-3; ew-3,5.80
same,pIC50,NCI-H209; nci-h209,6.27
same,pIC50,EM-2; em-2,4.15
same,pIC50,GR-ST; gr-st,5.12
same,pIC50,AM-38; am-38,3.65
same,pIC50,K5; k5,5.43
same,pIC50,GI-ME-N; gi-me-n,4.96
same,pIC50,NMC-G1; nmc-g1,4.84
same,pIC50,TE-9; te-9,4.81
same,pIC50,HT-144; ht-144,5.45
same,pIC50,SHP77; shp-77,3.22
same,pIC50,KGN; kgn,4.75
same,pIC50,NCI-H1092; nci-h1092,4.81
same,pIC50,EW-13; ew-13,5.38
same,pIC50,SF-126; sf-126,4.92
same,pIC50,ETK-1; etk-1,4.30
same,pIC50,HCE-4; hce-4,5.03
same,pIC50,HCC1187; hcc1187,3.93
same,pIC50,JVM-3; jvm-3,4.40
same,pIC50,EW-16; ew-16,4.61
same,pIC50,Becker; becker,4.75
same,pIC50,ES1; es1,5.99
same,pIC50,KM-H2; km-h2,3.35
same,pIC50,LB1047-RCC; lb1047-rcc,5.23
same,pIC50,A498; a498,4.71
same,pIC50,HL-60; hl-60,5.06
same,pIC50,LB2241-RCC; lb2241-rcc,4.95
same,pIC50,ES7; es7,5.73
same,pIC50,HH; hh,4.65
same,pIC50,NCI-H82; nci-h82,4.13
same,pIC50,NCI-H1650; nci-h1650,4.72
same,pIC50,A388; a388,4.28
same,pIC50,GOTO; goto,5.51
same,pIC50,COLO-829; colo-829,5.14
same,pIC50,NB6; nb6,3.50
same,pIC50,NCI-H1648; nci-h1648,4.16
same,pIC50,RKO; rko,4.18
same,pIC50,DOHH-2; dohh-2,5.37
same,pIC50,ALL-PO; all-po,4.51
same,pIC50,ES8; es8,5.47
same,pIC50,CP66-MEL; cp66-mel,4.49
